Measured values: patent US4044043A, “Derivatives of 9-oxo-13-trans-prostenoic acid esters” (American Cyanamid Company, priority 1975, dated 1977)
Converted amounts (≈) assume the structure as drawn.

These compounds were tested on bronchospasms elicited by histamine (assay: Bronchodilator Activity (Konzett Assay) against histamine). Conditions: Cavia porcellus; three logarithmic cumulative intravenous doses.
Type: in vivo, guinea pigs
Experimental: (§1) Bronchodilator activity was determined in guinea pigs against bronchospasms elicited by intravenous injections of 5-hydroxytryptamine, histamine or acetylcholine by the Konzett procedure. [See J. Lulling, P. Lievens, F. El Sayed and J. Prignot, Arzeneimittel-Forschung, 18, 995 (1968)]. In Table IIIC which follows bronchodilator activity for representative compounds of this invention against one or more of the three spasmogenic agents is expressed as an ED50 determined from the results obtained with three logarithmic cumulative intravenous doses.

Structure (SMILES) | ED50
CCS(=O)(=O)CCC/C=C/[C@H]1CCC(=O)[C@@H]1CCCCCCC(=O)O (relative stereo) [9-oxo-18-dioxythia-13-trans-prostenoic acid] | 9.87 mg/kg
CC(C)C/C=C/[C@H]1CCC(O)[C@@H]1CCCCCCC(=O)O (stereo partly drawn) [9α/β-hydroxy-16-methyl-18,19,20-trinor-13-trans-prostenoic acid] | 3.47 mg/kg
CCCCCC/C=C/[C@@H]1CCC(=NNc2ccc(C(=O)O)cc2)[C@H]1CCCCCCC(=O)O (relative stereo) [9-Oxo-13-trans-prostenoic acid p-carboxyphenylhydrazone] | 0.931 mg/kg
C=C1CC[C@@H](/C=C/CCCCCC)[C@@H]1CCCCCCC(=O)O (relative stereo) [9-methylene-13-trans-prostenoic acid, 9-Methylene-13-trans-prostenoic acid] | 1.45 mg/kg
CCCCCC/C=C/[C@@H]1CC[C@@H](O)[C@H]1CCCCCCC(=O)O (relative stereo) [9α-hydroxy-13-trans-prostenoic acid] | 0.268 mg/kg
CCCCCC/C=C/[C@H]1CC(C)C(=O)[C@@H]1CCCCCCC(=O)O (stereo partly drawn) [9-oxo-10-methyl-13-trans-prostenoic acid] | 0.303 mg/kg

What follows are compounds tested on Mycobacterium smegmatis ATCC 606 (assay: agar-dilution streak-plate antimicrobial assay). Conditions: Mycolicibacterium smegmatis, ATCC606, read-out: Minimal inhibitory conc. (6).
Type: cell-based
Experimental: The novel compounds of the present invention are also useful as antimicrobial agents. […] In this assay, the compounds to be tested are made up to contain 2.5 mg. of test compound per milliliter of solution. Observing sterile techniques, two-fold serial dilution are made of each test solution. One milliliter of each of the original solutions and of each of the serial dilutions is then added to 9 ml. of warm sterile nutrient agar capable of supporting growth of the bacterial test cultures. A second set of agar dilutions is prepared identical to the first except that the nutrient agar is designed to support the growth of the fungal test cultures. […] The test bacteria and yeast-like fungi are prepared for use by growing in broth overnight. The spores of the filamentous fungi are harvested from mature agar slant cultures and are suspended in sterile physiological saline solution. A loopful of each of the resulting live suspensions is then, still employing sterile techniques, streaked upon the surfaces of each of the agar plates and the resulting streaked plates are then incubated. After an appropriate period of time, each of the streaks on each of the plates is inspected visually and the extent, if any, of bacterial or fungal growth is noted. The minimal inhibitory concentration (expressed in micrograms per milliliter) is defined as the concentration of test compound causing complete inhibition of growth of any particular organism. In a representative operation, and merely by way of illustration, the minimal inhibitory concentration of typical compounds of the present invention against a variety of test organisms as determined in the above-described assay are set forth in Tables II and III below: […]

MIC | Structure (SMILES)
250 µg/mL (≈ 678 µM) | CCOC(=O)CCCCCC[C@H]1C(=O)CC[C@@H]1/C=C/CCCSCC (relative stereo) [ethyl 9-oxo-18-thia-13-trans-prostenoate]
62 µg/mL (≈ 184 µM) | CCCCC/C=C/[C@H]1CCC(=O)[C@@H]1CCCCCCC(=O)OCC (relative stereo) [ethyl 9-oxo-20-nor-13-trans-prostenoate]

What follows are compounds tested on diastolic blood pressure (assay: Prostaglandin-like hypotensive activity in anesthetized rats (minimal dose for about 10 mm. decrease in diastolic blood pressure)). Conditions: Rattus norvegicus; intravenous; decrease of about 10 mm. in diastolic blood pressure.
Type: in vivo, Male Wistar strain rats
Experimental: This procedure is a modification of the technique described by Pike et al., Prostaglandins, Nobel Symposium 2, Stockholm, June, 1966; p, 165.
Male Wistar strain rats (Royal Hart Farms) averaging approximately 250 grams in weight were fastened to rat boards in a supine position by means of canvas vests and limb ties. The femoral area was infiltrated subcutaneously with lidocaine and the iliac artery and vein exposed and cannulated. Arterial blood pressure (systolic/diastolic) was recorded using a Statham P23 Db pressure transducer-Offner dynograph system. To obtain a stable blood pressure, the animals were anesthetized before use with pentobarbital, 30 mg./kg. of body weight intravenously, and also were given hexamethonium bitartrate, 2 mg./kg. of body weight intravenously. The test compounds were prepared by ultrasonic dispersion in a saline-Tween 80 ® vehicle. A constant intravenous dose volume of 0.5 ml. was administered and test doses ranged from 0.1 to 10.0 mg./kg. of body weight. Increasing or decreasing doses were selected depending on the dose response obtained. In Table I below are set forth the minimal doses required to produce a decrease of about 10 mm. in diastolic blood pressure for typical compounds of the present invention.

Structure (SMILES) | minimal effective dose
CCOC(=O)CCCCCC[C@H]1C(=O)CC[C@@H]1/C=C/CCCSCC (relative stereo) [ethyl 9-oxo-18-thia-13-trans-prostenoate] | 2 mg/kg
CCCCC/C=C/[C@H]1CCC(=O)[C@@H]1CCCCCCC(=O)OCC (relative stereo) [ethyl 9-oxo-20-nor-13-trans-prostenoate] | 0.6 mg/kg

The compounds below were run on bronchospasms elicited by 5-hydroxytryptamine (assay: Bronchodilator Activity (Konzett Assay) against 5-hydroxytryptamine). Conditions: Cavia porcellus; three logarithmic cumulative intravenous doses.
Type: in vivo, guinea pigs
Experimental: as §1

Structure (SMILES) | ED50
CCS(=O)(=O)CCC/C=C/[C@H]1CCC(=O)[C@@H]1CCCCCCC(=O)O (relative stereo) [9-oxo-18-dioxythia-13-trans-prostenoic acid] | > 10 mg/kg
CC(C)C/C=C/[C@H]1CCC(O)[C@@H]1CCCCCCC(=O)O (stereo partly drawn) [9α/β-hydroxy-16-methyl-18,19,20-trinor-13-trans-prostenoic acid] | > 10 mg/kg
CCCCCC/C=C/[C@@H]1CCC(=NNc2ccc(C(=O)O)cc2)[C@H]1CCCCCCC(=O)O (relative stereo) [9-Oxo-13-trans-prostenoic acid p-carboxyphenylhydrazone] | 3.2 mg/kg
C=C1CC[C@@H](/C=C/CCCCCC)[C@@H]1CCCCCCC(=O)O (relative stereo) [9-methylene-13-trans-prostenoic acid, 9-Methylene-13-trans-prostenoic acid] | 14.1 mg/kg
CCCCCC/C=C/[C@@H]1CC[C@@H](O)[C@H]1CCCCCCC(=O)O (relative stereo) [9α-hydroxy-13-trans-prostenoic acid] | 0.559 mg/kg
CCCCCC/C=C/[C@H]1CC(C)C(=O)[C@@H]1CCCCCCC(=O)O (stereo partly drawn) [9-oxo-10-methyl-13-trans-prostenoic acid] | 1.84 mg/kg

The compounds below were run on bronchospasms elicited by acetylcholine (assay: Bronchodilator Activity (Konzett Assay) against acetylcholine). Conditions: Cavia porcellus; three logarithmic cumulative intravenous doses.
Type: in vivo, guinea pigs
Experimental: as §1

Structure (SMILES) | ED50
CCS(=O)(=O)CCC/C=C/[C@H]1CCC(=O)[C@@H]1CCCCCCC(=O)O (relative stereo) [9-oxo-18-dioxythia-13-trans-prostenoic acid] | > 10 mg/kg
CC(C)C/C=C/[C@H]1CCC(O)[C@@H]1CCCCCCC(=O)O (stereo partly drawn) [9α/β-hydroxy-16-methyl-18,19,20-trinor-13-trans-prostenoic acid] | > 10 mg/kg
CCCCCC/C=C/[C@@H]1CCC(=NNc2ccc(C(=O)O)cc2)[C@H]1CCCCCCC(=O)O (relative stereo) [9-Oxo-13-trans-prostenoic acid p-carboxyphenylhydrazone] | 5.55 mg/kg
C=C1CC[C@@H](/C=C/CCCCCC)[C@@H]1CCCCCCC(=O)O (relative stereo) [9-methylene-13-trans-prostenoic acid, 9-Methylene-13-trans-prostenoic acid] | > 10 mg/kg
CCCCCC/C=C/[C@@H]1CC[C@@H](O)[C@H]1CCCCCCC(=O)O (relative stereo) [9α-hydroxy-13-trans-prostenoic acid] | 2.53 mg/kg
CCCCCC/C=C/[C@H]1CC(C)C(=O)[C@@H]1CCCCCCC(=O)O (stereo partly drawn) [9-oxo-10-methyl-13-trans-prostenoic acid] | 73.2 mg/kg
